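48-hour exposure; five concentrations; linearly interpolated endpoints. TGI is the concentration that stops growth completely.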
What was measured:
Experiment in all cases: DTP human tumour cell line panel, 48 h
HCT-116 colon = system: HCT-116 colon
ACHN renal = system: ACHN renal
SF-539 CNS = system: SF-539 CNS
SK-MEL-2 melanoma = system: SK-MEL-2 melanoma
SF-295 CNS = system: SF-295 CNS
DMS 273 small cell lung = system: DMS 273 small cell lung
UACC-257 melanoma = system: UACC-257 melanoma
M14 melanoma = system: M14 melanoma
SK-OV-3 ovarian = system: SK-OV-3 ovarian
IGROV1 ovarian = system: IGROV1 ovarian
DMS 114 small cell lung = system: DMS 114 small cell lung
CAKI-1 renal = system: CAKI-1 renal
HL-60(TB) leukemia = system: HL-60(TB) leukemia
RPMI-8226 leukemia = system: RPMI-8226 leukemia
UACC-62 melanoma = system: UACC-62 melanoma
SNB-78 CNS = system: SNB-78 CNS
NCI-H522 lung = system: NCI-H522 lung
LOX IMVI melanoma = system: LOX IMVI melanoma
M19-MEL melanoma = system: M19-MEL melanoma
KM12 colon = system: KM12 colon
UO-31 renal = system: UO-31 renal
OVCAR-5 ovarian = system: OVCAR-5 ovarian
SNB-75 CNS = system: SNB-75 CNS
OVCAR-3 ovarian = system: OVCAR-3 ovarian
OVCAR-4 ovarian = system: OVCAR-4 ovarian
HCT-15 colon = system: HCT-15 colon
U251 CNS = system: U251 CNS
K-562 leukemia = system: K-562 leukemia
SW-620 colon = system: SW-620 colon
TK-10 renal = system: TK-10 renal
HOP-62 NSCLC = system: HOP-62 NSCLC
A549 NSCLC = system: A549 NSCLC
EKVX NSCLC = system: EKVX NSCLC
SNB-19 CNS = system: SNB-19 CNS
SF-268 CNS = system: SF-268 CNS
OVCAR-8 ovarian = system: OVCAR-8 ovarian
SR leukemia = system: SR leukemia
DLD-1 colon = system: DLD-1 colon
HCC-2998 colon = system: HCC-2998 colon
COLO 205 colon = system: COLO 205 colon
RXF-631 renal = system: RXF-631 renal
MOLT-4 leukemia = system: MOLT-4 leukemia
SK-MEL-5 melanoma = system: SK-MEL-5 melanoma
KM20L2 colon = system: KM20L2 colon
NCI-H23 lung = system: NCI-H23 lung
NCI-H460 lung = system: NCI-H460 lung
LXFL 529 NSCLC = system: LXFL 529 NSCLC
SK-MEL-28 melanoma = system: SK-MEL-28 melanoma
A498 renal = system: A498 renal
HT29 colon = system: HT29 colon
XF 498 CNS = system: XF 498 CNS
NCI-H226 lung = system: NCI-H226 lung
SN12C renal = system: SN12C renal
786-0 renal = system: 786-0 renal
RXF 393 renal = system: RXF 393 renal
CCRF-CEM leukemia = system: CCRF-CEM leukemia
MALME-3M melanoma = system: MALME-3M melanoma

SMILES: O=C(O)/C(=C/c1ccccc1[N+](=O)[O-])c1ccccc1
- TGI (HCT-116 colon): > 100 µM
- TGI (ACHN renal): > 100 µM
- TGI (SF-539 CNS): > 100 µM
- TGI (SK-MEL-2 melanoma): > 100 µM
- TGI (SF-295 CNS): > 100 µM
- TGI (DMS 273 small cell lung): > 100 µM
- TGI (UACC-257 melanoma): > 100 µM
- TGI (M14 melanoma): > 100 µM
- TGI (SK-OV-3 ovarian): > 100 µM
- TGI (IGROV1 ovarian): > 100 µM
- TGI (DMS 114 small cell lung): > 100 µM
- TGI (CAKI-1 renal): > 100 µM
- TGI (HL-60(TB) leukemia): > 100 µM
- TGI (RPMI-8226 leukemia): > 100 µM
- TGI (UACC-62 melanoma): > 100 µM
- TGI (SNB-78 CNS): > 100 µM
- TGI (NCI-H522 lung): > 100 µM
- TGI (LOX IMVI melanoma): > 100 µM
- TGI (M19-MEL melanoma): > 100 µM
- TGI (KM12 colon): > 100 µM
- TGI (UO-31 renal): > 100 µM
- TGI (OVCAR-5 ovarian): > 100 µM
- TGI (SNB-75 CNS): > 100 µM
- TGI (OVCAR-3 ovarian): > 100 µM
- TGI (OVCAR-4 ovarian): > 100 µM
- TGI (HCT-15 colon): > 100 µM
- TGI (U251 CNS): > 100 µM
- TGI (K-562 leukemia): > 100 µM
- TGI (SW-620 colon): > 100 µM
- TGI (TK-10 renal): > 100 µM
- TGI (HOP-62 NSCLC): > 100 µM
- TGI (A549 NSCLC): > 100 µM
- TGI (EKVX NSCLC): > 100 µM
- TGI (SNB-19 CNS): > 100 µM
- TGI (SF-268 CNS): > 100 µM
- TGI (OVCAR-8 ovarian): > 100 µM
- TGI (SR leukemia): > 100 µM
- TGI (DLD-1 colon): > 100 µM
- TGI (HCC-2998 colon): > 100 µM
- TGI (COLO 205 colon): > 100 µM
- TGI (RXF-631 renal): > 100 µM
- TGI (MOLT-4 leukemia): > 100 µM
- TGI (SK-MEL-5 melanoma): > 100 µM
- TGI (KM20L2 colon): > 100 µM
- TGI (NCI-H23 lung): > 100 µM
- TGI (NCI-H460 lung): > 100 µM
- TGI (LXFL 529 NSCLC): > 100 µM
- TGI (SK-MEL-28 melanoma): > 100 µM
- TGI (A498 renal): > 100 µM
- TGI (HT29 colon): > 100 µM
- TGI (XF 498 CNS): > 100 µM
- TGI (NCI-H226 lung): > 100 µM
- TGI (SN12C renal): > 100 µM
- TGI (786-0 renal): > 100 µM

SMILES: O=C(NO)c1coc2ccccc2c1=O
- TGI (ACHN renal): > 100 µM
- TGI (SF-539 CNS): > 100 µM
- TGI (SK-MEL-2 melanoma): > 100 µM
- TGI (SF-295 CNS): > 100 µM
- TGI (DMS 273 small cell lung): > 100 µM
- TGI (UACC-257 melanoma): > 100 µM
- TGI (M14 melanoma): > 100 µM
- TGI (RXF 393 renal): > 100 µM
- TGI (SK-OV-3 ovarian): 31.4 µM
- TGI (IGROV1 ovarian): > 100 µM
- TGI (DMS 114 small cell lung): > 100 µM
- TGI (CAKI-1 renal): 68.5 µM
- TGI (HL-60(TB) leukemia): > 100 µM
- TGI (RPMI-8226 leukemia): > 100 µM
- TGI (UACC-62 melanoma): > 100 µM
- TGI (SNB-78 CNS): > 100 µM
- TGI (NCI-H522 lung): > 100 µM
- TGI (LOX IMVI melanoma): > 100 µM
- TGI (KM12 colon): > 100 µM
- TGI (UO-31 renal): > 100 µM
- TGI (OVCAR-5 ovarian): > 100 µM
- TGI (CCRF-CEM leukemia): > 100 µM
- TGI (SNB-75 CNS): > 100 µM
- TGI (OVCAR-4 ovarian): > 100 µM
- TGI (HCT-15 colon): > 100 µM
- TGI (U251 CNS): > 100 µM
- TGI (K-562 leukemia): > 100 µM
- TGI (SW-620 colon): > 100 µM
- TGI (TK-10 renal): > 100 µM
- TGI (A549 NSCLC): > 100 µM
- TGI (MALME-3M melanoma): > 100 µM
- TGI (EKVX NSCLC): > 100 µM
- TGI (SNB-19 CNS): > 100 µM
- TGI (SF-268 CNS): > 100 µM
- TGI (OVCAR-8 ovarian): > 100 µM
- TGI (DLD-1 colon): > 100 µM
- TGI (HCC-2998 colon): > 100 µM
- TGI (COLO 205 colon): > 100 µM
- TGI (RXF-631 renal): > 100 µM
- TGI (MOLT-4 leukemia): > 100 µM
- TGI (SK-MEL-5 melanoma): > 100 µM
- TGI (KM20L2 colon): > 100 µM
- TGI (NCI-H23 lung): > 100 µM
- TGI (LXFL 529 NSCLC): > 100 µM
- TGI (SK-MEL-28 melanoma): > 100 µM
- TGI (A498 renal): > 100 µM
- TGI (HT29 colon): > 100 µM
- TGI (SN12C renal): > 100 µM

Reference: PubChem BioAssay (NCI)
